Patent publication US20200138827A1, “SMALL MOLECULE MODULATORS OF HUMAN STING” (Curadev Pharma Limited, priority 2017, published 2020)
Read-outs that look alike come from different tables or passages of the source.

Key:
[1] = molecular target: T1, hSTING(HAQ) (Homo sapiens, UniProt Q86WV6, G230A/H232R/R293Q/R71H); test: Luciferase reporter assay in HEK293T-hSTING-Luciferase cells, HAQ polymorph; assay type: cell-based; conditions: 20 hr stimulation, read-out: HAQ activity (EC50 range)
T1 construct: host or cells: HEK293T
Outline: (§1)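 HEK293T clones stably expressed the given human STING variant plus luciferase under an ISRE/ISG54 IRF-inducible promoter. 5×10^5 cells were stimulated with compound for 20 hr, and secreted luciferase in the supernatant was measured by Quanti-Luc luminescence.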

[2] = molecular target: T2, hSTING(H232) (Homo sapiens, UniProt Q86WV6); test: Luciferase reporter assay in HEK293T-hSTING-Luciferase cells, H232 polymorph; assay type: cell-based; conditions: 20 hr stimulation, read-out: H232 activity (EC50 range)
T2 construct: host or cells: HEK293T
Outline: as §1

[3] = molecular target: T3, WT/R232 STING protein (Homo sapiens, UniProt Q86WV6, H232R); test: Luciferase reporter assay in HEK293T-hSTING-Luciferase cells, WT/R232; assay type: cell-based; conditions: 20 hr stimulation, read-out: R232 Activity (EC50 range)
T3 construct: host or cells: HEK293T
Outline: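 Clonal HEK293T cells stably expressing human STING R232 plus an ISRE/ISG54-driven luciferase reporter, 5×10^5 per well, stimulated with compounds for 20 h. Secreted luciferase in supernatant measured by luminescence; […].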

[4] = test system: IRF pathway; test: Reporter gene expression assay in THP1-Dual cells, IRF axis (secreted Lucia luciferase); assay type: cell-based, human; conditions: read-out: THP-IRF activity (EC50 range)
Outline: (§2)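 THP-1-derived cells carrying inducible NF-κB-SEAP and IRF-Lucia reporters, seeded at 5×10^5 and stimulated with compounds. After […], supernatant SEAP read with QUANTI-Blue and Lucia luciferase with QUANTI-Luc.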

[5] = test system: NF-κB pathway; test: Reporter gene expression assay in THP1-Dual cells, NFkB axis (secreted SEAP); assay type: cell-based, human; conditions: read-out: THP-NFKB activity (EC50 range)
Outline: as §2

T1 sequence (Q86WV6 whole entry R71H/G230A/H232R/R293Q): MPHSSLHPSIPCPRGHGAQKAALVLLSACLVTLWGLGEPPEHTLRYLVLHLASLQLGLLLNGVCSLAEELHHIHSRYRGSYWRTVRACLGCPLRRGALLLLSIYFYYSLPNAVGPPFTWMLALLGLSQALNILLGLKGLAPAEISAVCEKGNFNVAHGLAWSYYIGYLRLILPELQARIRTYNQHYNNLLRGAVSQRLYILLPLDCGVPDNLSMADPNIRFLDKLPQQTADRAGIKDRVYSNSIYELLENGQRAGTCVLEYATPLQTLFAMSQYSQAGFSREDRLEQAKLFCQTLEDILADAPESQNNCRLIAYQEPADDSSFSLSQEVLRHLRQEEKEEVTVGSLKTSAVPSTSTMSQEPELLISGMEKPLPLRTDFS
T2 sequence (Q86WV6 whole entry): as the sequence (Q86WV6 whole entry R71H/G230A/H232R/R293Q) above, with H71R, A230G, R232H, Q293R counted along it
T3 sequence (Q86WV6 whole entry H232R): as the sequence (Q86WV6 whole entry R71H/G230A/H232R/R293Q) above, with H71R, A230G, Q293R counted along it

SMILES	EC50 [1] [µM]	EC50 [2] [µM]	EC50 [3] [µM]	EC50 ([4]; Homo sapiens, THP1-Dual) [µM]	EC50 ([5]; Homo sapiens, THP1-Dual) [µM]	EC50 [4] [µM]	EC50 [5] [µM]
CC1Sc2ccc(C(=O)NCc3ccc(F)cc3F)nc2N(Cc2c(F)cccc2Cl)C1=O (centres unmarked) [Example 187, 4-(2-chloro-6-fluorobenzyl)-N-(2,4-difluorobenzyl)-2-methyl-3-oxo-3,4-dihydro-2H-pyrido[3,2-b-1,4]thiazine-6-carboxamide]	> 10	> 10	1 to 10	> 10	> 10	–	–
O=C(NCc1c(F)cc(F)cc1F)c1ccc2c(c1)N(C(=O)c1c(F)cccc1Cl)CCS2 [Example 258, 4-(2-chloro-6-fluorobenzoyl)-N-(2,4,6-trifluorobenzyl)-3,4-dihydro-2H-benzo[b][1,4]thiazine-6-carboxamide]	> 10	> 10	1 to 10	> 10	> 10	–	–
O=C(NCc1c(F)cc(F)cc1F)c1ccc2c(c1)N(Cc1cc(F)cc(F)c1)S(=O)(=O)CC2 [Example 284, 1-(3,5-Difluorobenzyl)-N-(2,4,6-trifluorobenzyl)-3,4-dihydro-1H-benzo[c][1,2]thiazine-7-carboxamide 2,2-dioxide]	> 10	> 10	< 1	> 10	> 10	–	–
O=C(NCc1cc2ccccc2o1)c1ccc2c(n1)N(Cc1cc(F)cc(F)c1)C(=O)CS2 [Example 183, N-(benzofuran-2-ylmethyl)-4-(3,5-difluorobenzyl)-3-oxo-3,4-dihydro-2H-pyrido[3,2-b-1,4]thiazine-6-carboxamide]	1 to 10	1 to 10	1 to 10	> 10	1 to 10	–	–
O=C(NCc1c(F)cccc1F)c1ccc2c(c1)N(Cc1c(F)cccc1Cl)C(=O)CS2 [Example 31, 4-(2-chloro-6-fluorobenzyl)-N-(2,6-difluorobenzyl)-3-oxo-3,4-dihydro-2H-benzo[b-1,4]thiazine 6-carboxamide]	1 to 10	< 1	< 1	> 10	> 10	–	–
CC1Sc2ncc(C(=O)NCc3ccccc3)cc2N(Cc2c(F)cccc2Cl)C1=O (centres unmarked) [Example 201, N-benzyl-1-(2-chloro-6-fluorobenzyl)-3-methyl-2-oxo-2,3-dihydro-1H-pyrido[2,3-b][1,4]thiazine-7-carboxamide]	1 to 10	1 to 10	1 to 10	> 10	> 10	–	–
C[C@@H]1Oc2ccc(C(=O)NCc3cc4ccccc4o3)cc2N(Cc2cc(F)cc(F)c2)C1=O [Example 235, (S)-N-(benzofuran-2-ylmethyl)-4-(3,5-difluorobenzyl)-2-methyl-3-oxo-3,4-dihydro-2H-benzo[b-1,4]oxazine-6-carboxamide]	1 to 10	1 to 10	< 1	1 to 10	1 to 10	–	–
CC1(C)Sc2ccc(C(=O)NCC3CCCCC3)cc2N(Cc2ccccc2F)C1=O [Example 136, N-(cyclohexylmethyl)-4-(2-fluorobenzyl)-2,2-dimethyl-3-oxo-3,4-dihydro-2H-benzo[b-1,4]thiazine-6-carboxamide]	> 10	> 10	1 to 10	> 10	> 10	–	–
CCCC1Sc2ccc(C(=O)NCc3c(F)cc(F)cc3F)cc2N(Cc2c(F)cccc2Cl)C1=O (centres unmarked) [Example 147, 4-(2-chloro-6-fluorobenzyl)-3-oxo-2-propyl-N-(2,4,6-trifluorobenzyl)-3,4-dihydro-2H-benzo[b-1,4]thiazine-6-carboxamide]	1 to 10	1 to 10	< 1	> 10	> 10	–	–

The remaining lines, values ahead:

EC50 [1] [µM]	EC50 [2] [µM]	EC50 [3] [µM]	EC50 ([4]; Homo sapiens, THP1-Dual) [µM]	EC50 ([5]; Homo sapiens, THP1-Dual) [µM]	EC50 [4] [µM]	EC50 [5] [µM]	SMILES
1 to 10	1 to 10	1 to 10	> 10	1 to 10	–	–	CC1Sc2ccc(C(=O)NCc3c(F)cc(F)cc3F)cc2N(Cc2cnn(C)c2)C1=O (centres unmarked) [Example 133, 2-methyl-N-2,4,6-trifluorobenzyl-4-[(1-methyl-1H-pyrazol-4-yl)methyl]-3-oxo-3,4-dihydro-2H-1,4-benzothiazine-6-carboxamide]
1 to 10	1 to 10	< 1	> 10	> 10	–	–	C=CCC1Sc2ccc(C(=O)NCc3c(F)cc(F)cc3F)cc2N(Cc2c(F)cccc2Cl)C1=O (centres unmarked) [Example 146, 2-allyl-4-(2-chloro-6-fluorobenzyl)-3-oxo-N-(2,4,6-trifluorobenzyl)-3,4-dihydro-2H-benzo[b-1,4]thiazine-6-carboxamide]
1 to 10	1 to 10	< 1	1 to 10	1 to 10	–	–	CC1(CO)Sc2ccc(C(=O)NCc3ccc(F)cc3F)cc2N(Cc2c(F)cccc2Cl)C1=O (centres unmarked) [Example 151, 4-(2-chloro-6-fluorobenzyl)-N-(2,4-difluorobenzyl)-2-(hydroxymethyl)-2-methyl-3-oxo-3,4-dihydro-2H-benzo[b][1,4] thiazine-6-carboxamide]
1 to 10	1 to 10	< 1	> 10	> 10	–	–	C[C@H]1Oc2ccc(C(=O)NCc3c(F)cc(F)cc3F)cc2N(Cc2cc(F)cc(F)c2)C1=O [Example 233, (R)-4-(3,5-difluorobenzyl)-2-methyl-3-oxo-N-(2,4.,6-trifluorobenzyl)-3,4-dihydro-2H-benzo[b-1,4]oxazine-6-carboxamide]
1 to 10	1 to 10	1 to 10	> 10	> 10	–	–	O=C(NCc1cc2ccccc2o1)c1cnc2c(c1)N(Cc1c(F)cccc1Cl)C(=O)CS2 [Example 197, N-(benzofuran-2-ylmethyl)-1-(2-chloro-6-fluorobenzyl)-2-oxo-2,3-dihydro-1H-pyrido[2,3-b][1,4]thiazine-7-carboxamide]
1 to 10	1 to 10	< 1	> 10	> 10	–	–	O=C(NCc1c(F)cc(F)cc1F)c1cnc2c(c1)N(Cc1cc(F)cc(F)c1)C(=O)CS2 [Example 200, 1-(3,5-difluorobenzyl)-2-oxo-N-(2,4,6-trifluorobenzyl)-2,3-dihydro-1H-pyrido[2,3-b] [1,4]thiazine-7-carboxamide]
< 1	< 1	< 1	1 to 10	1 to 10	–	–	CC1Sc2ccc(C(=O)NCc3c(F)cc(F)cc3F)cc2N(Cc2c(F)cccc2Cl)C1=O (centres unmarked) [Example 138, 4-(2-chloro-6-fluorobenzyl)-2-methyl-3-oxo-N-(2,4,6-trifluorobenzyl)-3,4-dihydro-2H-benzo[b-1,4]thiazine-6-carboxamide]
1 to 10	1 to 10	1 to 10	> 10	> 10	–	–	O=C(NCc1ccc(F)cc1)c1ccc2c(c1)N(Cc1c(F)cccc1Cl)C(=O)CS2 [Example 127, 4-(2-chloro-6-fluorobenzyl)-N-(4-fluorobenzyl)-3-oxo-3,4-dihydro-2H-benzo[b-1,4]thiazine-6-carboxamide]
< 1	< 1	< 1	1 to 10	1 to 10	–	–	CC1Cc2ccc(C(=O)NCc3c(F)cc(F)cc3F)cc2N(Cc2c(F)cccc2Cl)C1=O (centres unmarked) [Example 267, 1-(2-Chloro-6-fluorobenzyl)-3-methyl-2-oxo-N-(2,4,6-trifluorobenzyl)-1,2,3,4-tetrahydroquinoline-7-carboxamide]
< 1	< 1	< 1	–	–	> 10	> 10	C[C@@H]1Oc2ccc(C(=O)NCc3c(F)cc(F)cc3F)cc2N(Cc2cc(F)cc(F)c2)C1=O [Example 243, (S)-4-(3,5-difluorobenzyl)-2-methyl-3-oxo-N-(2,4,6-trifluorobenzyl)-3,4-dihydro-2H-benzo[b][1,4] oxazine-6-carboxamide]
